Test results: patent US20240294881A1, “CELL CULTURE SUPPLEMENT FOR PRODUCING STEM CELLS, AND METHOD FOR PRODUCING STEM CELLS” (OPTICELL, INC, priority 2021, published 2024)

How the values were obtained:
[1] = system: healthy human neonatal fibroblasts; assay: Spheroid culture of healthy human neonatal fibroblasts in coated 6-well flat-bottom vessel, microscope observation; type: cell-based; conditions: PS 6-well flat-bottom vessel coated with 0.125% solution; day 2 to day 20; uncoated control adhered and grew 2D
Protocol: 2 mL of an aqueous solution of the polypeptide represented by formula (1) (0.125%) (cell culture supplement) was added to a commercial polystyrene-made 6-well flat-bottom culture vessel (CellBIND, Corning) and allowed to stand at 4° C. for 24 hours.
Thereafter, the excess cell culture supplement was removed, and the remaining solution was dried in a dryer at 37° C. for 96 hours to complete coating treatment with the cell culture supplement. Healthy human neonatal fibroblasts (ATCC PCS-201-010, primary dermal fibroblasts, neonatal, referred to as “fibroblasts” below) were maintained and cultured in a serum-free medium (Promo Cell; fibroblast basal medium, basic-FGF 5 ng/mb and insulin 2.5 μg/mL). The fibroblasts floating in 2 mL of the medium were seeded in the culture vessel coated with the cell culture supplement at 2×10^6 cells/well and cultured at 37° C. under 5% CO2 conditions. For a control, fibroblasts were seeded in a culture vessel of the same type with no coating applied with the cell culture supplement (2×10^6 cells/well). Observation was performed with a microscope on day 2 and day 20 after the start of culture to capture images of spheroid formation (FIG. 5).

[2] = system: HOS-143B (human osteosarcoma); assay: Study of concentration of cell culture supplement: spheroid formation; type: cell-based; conditions: 96-well flat-bottom plate, 3 days of culture
Protocol: An aqueous solution of the polypeptide represented by formula (1) (0.5%) was diluted 4-fold to 1024-fold to prepare different diluted solutions (cell culture supplement), and 100 μl of the solution was added to each well of a commercial 96-well flat-bottom plate (CellBIND, Corning) and allowed to stand at 4° C. for 16 hours.
Thereafter, the excess cell culture supplement was removed, and the remaining solution was dried under reduced pressure at room temperature for 24 hours. HOS-143B (human osteosarcoma) was seeded at 3,000 cells/well in a culture plate coated with the cell culture supplement and cultured at 37° C. under 5% CO2 conditions. The medium used was DMEM+10% FBS.

A549 lung cancer cells = assay: Real-time PCR of cancer stem cell and undifferentiated stem cell marker genes in cancer cell spheroids; type: cell-based, human; conditions: control no supplement, 2D adhesion proliferation, day 4 = 1.0
Protocol: (§1) A culture vessel treated with the cell culture supplement was prepared in the same manner as in Example 7, and the same three types of cancer cells as those in Example 7 were cultured. On day 4 and day 15 after the start of culture, spheroids of each of the three types of cancer cells were taken from the culture vessel and collected in an individual 15-mb centrifuge tube, followed by washing with phosphate buffered saline (−). After removal of the medium, cancer cells cultured in the plate free of the cell culture supplement (control) were washed with PBS (−), detached from the plate with 0.05% trypsin-EGTA and dissociated. The cancer cells were then collected in a 15-mL centrifuge tube and washed again with PBS (−). mRNA was extracted from the collected spheroids and control cells, and the expression of cancer stem cell marker genes was analyzed by real-time PCR.
(§2) Specifically, a NucleoZOL reagent (Macherey-Nagel) reagent was added to each type of cells, and RNA was extracted according to the protocol recommended by the reagent manufacturer and used as template RNA for detecting stem cell markers. For real-time PCR analysis, PCR probes from QuantiFast Probe RT-PCR Kits (QIAGEN; No. 204454) and TaqMan Gene Expression Assay Probe (Thermo Fisher Scientific) were used. PCR analysis was performed with a Rotor-Gene Q (QIAGEN) apparatus. For probes for detecting the expression of cancer stem cell marker genes, the following three PCR probes were used: CD24 (mucin-type glycoprotein, ligand for P-selectin, Oncogene), CD44 (cell surface glycoprotein involved cell-cell interaction, adhesion and migration, cancer stem cell marker), CD133 (five transmembrane glycoprotein, stem cell marker and cancer stem cell marker protein). B-actin was used as an endogenous control gene. For probes for detecting the expression of undifferentiated stem cell marker genes, three transcription factors, SOX2 (sex-determining region Y-box 2), OCT4 (octamer binding transcription factor 4), and NANOG (homeodomain transcription factor), which are used in the production of iPS cells, were used; and β-actin was used as the endogenous control gene. In the gene expression analysis, relative quantification was performed according to the ΔΔCt method (Delta Delta Ct method). The results of analysis according to the ΔΔCt method show the amount of a gene expressed by control cells under the conditions of “no cell culture supplement, 2D adhesion proliferation, day 4” as “1.0” in relative terms, and the increase rate in “the expression level in spheroid proliferation on day 15” was determined by comparison (FIGS. 23 to 25).
(§3) Coating of a culture vessel was completed in the same manner as in Examples 7 and 11, and three types of cancer cells, A549 cells, ES2 cells, and 143B cells, were cultured. For probes for detecting the expression of undifferentiated stem cell marker genes, the following three transcription factors were used: SOX2 (sex-determining region Y-box 2), OCT4 (octamer binding transcription factor 4), and NANOG (homeodomain transcription factor); and β-actin was used as an endogenous control gene. In the gene expression analysis, relative quantification was performed according to the ΔΔCt method (Delta Delta Ct method). The results of analysis according to the ΔΔCt method show the amount of a gene expressed by control cells under the conditions of “no cell culture supplement, 2D adhesion proliferation, day 4” as “1.0” in relative terms, and the increase rate in “the expression level in spheroid proliferation on day 15” was determined by comparison (FIGS. 26 to 28).

ES2 ovarian cancer cells = assay: as above; type: cell-based, human; conditions: for CD24 gene expression level (increase vs control) / CD44 gene expression level (increase vs control) / NANOG gene expression level (increase vs control) / OCT4 gene expression level (increase vs control) / SOX2 gene expression level (increase vs control): control no supplement, 2D adhesion proliferation, day 4 = 1.0
Protocol: as §1, §2, §3

[3] = system: HOS-143B osteosarcoma cells; assay: as above; type: cell-based, human; conditions: control no supplement, 2D adhesion proliferation, day 4 = 1.0
Protocol: as §1, §2, §3

With “(Pro-Hyp-Gly)n [cell culture supplement]” the spheroid formation [1] was “formed spheroids”, the “spheroid formation in plates coated with solutions diluted further than 256-fold” value [2] was “No formation of spheroids was observed” and the “dilution of the 0.5% aqueous solution used for coating at which formation of spheroids was observed” value ([2]; dilutions 4-fold to 1024-fold) was ≤ 256 -fold diluted. For the same substance, the “CD24 gene expression level (increase vs control)” value (A549 lung cancer cells; day 4 of spheroid culture) was 2.2 fold, the “CD44 gene expression level (increase vs control)” value (A549 lung cancer cells; day 4 of spheroid culture) was 1.6 fold and the “CD133 gene expression level (increase vs control)” value (A549 lung cancer cells; day 4 of spheroid culture) was 3.4 fold. The “NANOG gene expression level (increase vs control)” value (A549 lung cancer cells; day 4 of spheroid culture) was 10.6 fold, the “OCT4 gene expression level (increase vs control)” value (A549 lung cancer cells; day 4 of spheroid culture) was 1.6 fold and the “SOX2 gene expression level (increase vs control)” value (A549 lung cancer cells; day 4 of spheroid culture) was 5.0 fold. For the same substance, the “CD24 gene expression level (increase vs control)” value (A549 lung cancer cells; day 15 of spheroid culture) was 4.2 fold, the “CD44 gene expression level (increase vs control)” value (A549 lung cancer cells; day 15 of spheroid culture) was 2.9 fold and the “CD133 gene expression level (increase vs control)” value (A549 lung cancer cells; day 15 of spheroid culture) was 13.5 fold. The “NANOG gene expression level (increase vs control)” value (A549 lung cancer cells; day 15 of spheroid culture) was 55.7 fold, the “OCT4 gene expression level (increase vs control)” value (A549 lung cancer cells; day 15 of spheroid culture) was 3.7 fold and the “SOX2 gene expression level (increase vs control)” value (A549 lung cancer cells; day 15 of spheroid culture) was 6.0 fold. The “CD24 gene expression level (increase vs control)” value (ES2 ovarian cancer cells; day 4 of spheroid culture) was 11.6 fold, the “CD44 gene expression level (increase vs control)” value (ES2 ovarian cancer cells; day 4 of spheroid culture) was 1.3 fold and the “NANOG gene expression level (increase vs control)” value (ES2 ovarian cancer cells; day 4 of spheroid culture) was 3.9 fold. For the same substance, the “OCT4 gene expression level (increase vs control)” value (ES2 ovarian cancer cells; day 4 of spheroid culture) was 2.6 fold, the “SOX2 gene expression level (increase vs control)” value (ES2 ovarian cancer cells; day 4 of spheroid culture) was 1.1 fold and the “CD133 gene expression level (increase vs day 4 spheroid culture)” value (ES2 ovarian cancer cells; day 15 of spheroid culture, CD133 on day 4 in spheroid culture taken as control value (1.0), not detected in adhesion proliferation cells) was 8.5 fold. For the same substance, the “CD24 gene expression level (increase vs control)” value (ES2 ovarian cancer cells; day 15 of spheroid culture) was 63.2 fold, the “CD44 gene expression level (increase vs control)” value (ES2 ovarian cancer cells; day 15 of spheroid culture) was 2.9 fold and the “NANOG gene expression level (increase vs control)” value (ES2 ovarian cancer cells; day 15 of spheroid culture) was 10.9 fold. For the same substance, the “OCT4 gene expression level (increase vs control)” value (ES2 ovarian cancer cells; day 15 of spheroid culture) was 4.6 fold, the “SOX2 gene expression level (increase vs control)” value (ES2 ovarian cancer cells; day 15 of spheroid culture) was 3.4 fold and the “CD24 gene expression level (increase vs control)” value ([3]; day 4 of spheroid culture) was 1.34 fold. For the same substance, the “CD44 gene expression level (increase vs control)” value ([3]; day 4 of spheroid culture) was 2.3 fold, the “CD133 gene expression level (relative to control, printed as decreased)” value ([3]; day 4 of spheroid culture) was 0.3 fold and the “NANOG gene expression level (increase vs control)” value ([3]; day 4 of spheroid culture) was 1.6 fold. For the same substance, the “OCT4 gene expression level (increase vs control)” value ([3]; day 4 of spheroid culture) was 2.5 fold, the “SOX2 gene expression level (increase vs control)” value ([3]; day 4 of spheroid culture) was 3.5 fold and the “CD24 gene expression level (increase vs control)” value ([3]; day 15 of spheroid culture) was 1.2 fold. For the same substance, the “CD44 gene expression level (increase vs control)” value ([3]; day 15 of spheroid culture) was 1.9 fold, the “CD133 gene expression level (increase vs control)” value ([3]; day 15 of spheroid culture) was 2.1 fold and the “NANOG gene expression level (increase vs control)” value ([3]; day 15 of spheroid culture) was 1.4 fold. The “OCT4 gene expression level (increase vs control)” value ([3]; day 15 of spheroid culture) was 2.4 fold and the “SOX2 gene expression level (increase vs control)” value ([3]; day 15 of spheroid culture) was 1.6 fold.
